The values that follow come from patent US8846704B2, “Thiopyrimidine-based compounds and uses thereof” (YM Biosciences Austraila Pty Ltd, priority 2007, dated 2014).

One assay has as its target T1, human JAK3 (Homo sapiens, UniProt P52333).
T1 construct: The kinase domain of human JAK3 was amplified; GST (N); made in house; host or cells: Sf9 insect cells (baculovirus)
The assay can be described thus: Alphascreen tyrosine kinase enzyme assay, JAK3 kinase domain. Conditions: read-out: JAK3 IC50_nM. The format is biochemical. A digest of the protocol: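 GST-affinity-purified human JAK3 kinase domain (baculovirus/Sf9) was pre-incubated 20 min with compound ([…]) in HEPES pH 7.5 buffer with MgCl2, vanadate and Tween 20. Biotinylated peptide substrate ([…]) and ATP were then added; phosphotyrosine was detected by AlphaScreen PY100 acceptor and streptavidin donor beads after 2–3 h.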
For orientation: In Alpha technology, singlet oxygen from a donor bead excites a nearby acceptor bead.

The next assay concerns BaF3 wild-type cells. The assay can be described thus: Cellular screening, BaF3 wild-type cells, Alamar Blue. The format is cell-based. Conditions: Mus musculus, 40 hr, read-out: BAF3wt IC50_nM. In short, it runs like this: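 Compounds, screened from dilution plates at 20 μM, were added as 10× final stocks to cells grown in DMEM/10% FCS/10% WEHI 3B conditioned medium. Cells were seeded at 1.1× final (50,000–200,000 cells/mL) and incubated 40 hr at 37° C, 5% CO2. Viability was read at 544 nm after a further 4–6 hours with Alamar Blue.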

The structures appear in SMILES notation. pIC50: −log10 of the molar value.

T1 sequence (P52333 822-1111 limits assumed): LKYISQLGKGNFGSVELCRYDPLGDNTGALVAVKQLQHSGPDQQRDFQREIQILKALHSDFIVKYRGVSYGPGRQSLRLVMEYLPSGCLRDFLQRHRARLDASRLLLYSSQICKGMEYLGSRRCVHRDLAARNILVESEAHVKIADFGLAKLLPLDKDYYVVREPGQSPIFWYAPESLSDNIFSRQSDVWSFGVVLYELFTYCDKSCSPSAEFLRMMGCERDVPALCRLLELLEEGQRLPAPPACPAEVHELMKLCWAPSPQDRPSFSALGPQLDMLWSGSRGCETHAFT

On to `C=CC(=O)Nc1ccc(Sc2ccnc(Nc3cccc(C(=O)OC)c3)n2)cc1` [Compound 356, methyl 3-(4-(4-acrylamidophenylthio)pyrimidin-2-ylao)benzoate], for which the pIC50 at human JAK3 is over 7.00; with BaF3 wild-type cells, over 4.70.
The corresponding values for `C=CC(=O)Nc1ccc(Sc2ccnc(Nc3cccc([N+](=O)[O-])c3)n2)cc1` [Compound 361, N-(4-(2-(3-nitrophenylao)pyrimidin-4-ylthio)phenyl)acrylamide] are over 7.00 and under 4.70.
For `C=CC(=O)Nc1ccc(Sc2ccnc(Nc3cccc(S(N)(=O)=O)c3)n2)cc1` [Compound 364, N-(4-(2-(3-sulfamoylphenylao)pyrimidin-4-ylthio)phenyl)acrylamide], the pIC50 was over 7.00 on human JAK3 and over 4.70 in the assay on BaF3 wild-type cells.
The corresponding values for `C=CC(=O)Nc1ccc(Sc2ccnc(Nc3cccc(S(=O)(=O)N4CCN(C)CC4)c3)n2)cc1` [Compound 365, N-(4-(2-(3-(4-methylpiperazin-1-ylsulfonyl)phenylao)pyrimidin-4-ylthio)phenyl)acrylamide] are over 7.00 and over 4.70.
For `C=CC(=O)Nc1ccc(Sc2ccnc(Nc3cccc(S(=O)(=O)NCc4ccccc4)c3)n2)cc1` [Compound 366, N-(4-(2-(3-(N-benzylsulfamoyl)phenylao)pyrimidin-4-ylthio)phenyl)acrylamide], the pIC50 on human JAK3 is over 7.00; in the assay with BaF3 wild-type cells, over 4.70.
The corresponding values for `C=CC(=O)Nc1ccc(Sc2ccnc(Nc3ccc(S(=O)(=O)N4CCOCC4)cc3)n2)cc1` [Compound 367, N-(4-(2-(4-(morpholinosulfonyl)phenylao)pyrimidin-4-ylthio)phenyl)acrylamide] are over 7.00 and over 4.70.
With `C=CC(=O)Nc1ccc(Sc2ccnc(Nc3ccc(S(=O)(=O)NCc4ccccc4)cc3)n2)cc1` [Compound 368, N-(4-(2-(4-(N-benzylsulfamoyl)phenylao)pyrimidin-4-ylthio)phenyl)acrylamide], the pIC50 at human JAK3 is over 7.00; in the assay with BaF3 wild-type cells, over 4.70.
Take `C=CC(=O)Nc1ccc(Sc2ccnc(Nc3ccc(S(=O)(=O)N4CCN(C)CC4)cc3)n2)cc1` [Compound 370, N-(4-(2-(4-(4-methylpiperazin-1-ylsulfonyl)phenylao)pyrimidin-4-ylthio)phenyl)acrylamide]: the pIC50 at human JAK3 was over 7.00; with BaF3 wild-type cells it was over 4.70.
The corresponding values for `C=CC(=O)Nc1ccc(Sc2ccnc(Nc3ccc(S(=O)(=O)NCCC(C)C)cc3)n2)cc1` [Compound 371, N-(4-(2-(4-(N-isopentylsulfamoyl)phenylao)pyrimidin-4-ylthio)phenyl)acrylamide] are over 7.00 and over 4.70.
Consider `C=CC(=O)Nc1ccc(Sc2ccnc(Nc3cccc(S(=O)(=O)N4CCOCC4)c3)n2)cc1` [Compound 372, N-(4-(2-(3-(morpholinosulfonyl)phenylao)pyrimidin-4-ylthio)phenyl)acrylamide], for which the pIC50 on human JAK3 is over 7.00; in the assay on BaF3 wild-type cells, over 5.30.
`C=CC(=O)Nc1ccc(Sc2ccnc(Nc3ccc(S(=O)(=O)N4CCOCC4)c(OC)c3)n2)cc1` [Compound 373, N-(4-(2-(3-methoxy-4-(morpholinosulfonyl)phenylao)pyrimidin-4-ylthio)phenyl)acrylamide]: the pIC50 is over 7.00 on human JAK3 and over 5.30 in the assay with BaF3 wild-type cells.
The corresponding values for `O=C(Nc1ccc(Sc2ccnc(Nc3ccc(N4CCOCC4)cc3)n2)cc1)C1CC1(F)Cl` (centres unmarked) [Compound 378, 2-chloro-2-fluoro-N-(4-(2-(4-morpholinophenylao)pyrimidin-4-ylthio)phenyl)cyclopropanecarboxamide] are over 6.30 and over 6.00.
The corresponding values for `Cc1cnc(Nc2ccc(N3CCOCC3)cc2)nc1Sc1ccc(NC(=O)/C(Br)=C\C(=O)O)cc1` [Compound 381, (E)-3-bromo-4-(4-(5-methyl-2-(4-morpholinophenylao)pyrimidin-4-ylthio)phenylao)-4-oxobut-2-enoic acid] are over 6.30 and under 4.70.
